According to patent US8153581B2, “Process for producing an injectable medicament preparation” (KTB Tumorforschungs GmbH, priority 1999, dated 2012):
Where two headings read alike, the source gives them in different places.

Assays:
albumin [1] = target: T1, albumin (Homo sapiens, UniProt P02768); settings: 37° C.
Protocol: In this experiment, the plasma sample was separated, after the incubation had taken place, on a POROS®-20 anion exchange column (the proteins were detected at 254 nm while the anthracycline was detected by fluorescence).
1.4 mg of 2 (Mr 1374) are dissolved, at room temperature, in 1.0 ml of phosphate buffer (0.15 M NaCl, 0.004 M sodium phosphate, pH 6.5) (1000 μm solution).

[2] = system: RENCA, renal cell carcinoma; assay: RENCA (renal cell carcinoma) model, antitumour activity; type: in vivo, Balc/c mice
Text: (§1) The biological data listed below clarify the in vivo activity of DOXO-HYD as compared with that of free doxorubicin: in what is termed the RENCA (renal cell carcinoma)-model, doxorubicin and DOXO-HYD were compared with each other, at approximately equitoxic doses, as regards their antitumour activity (intravenous therapy 10 days after injecting about 1 million kidney carcinoma cells into the left kidney).
(§2) Animals: Balc/c mice, female; Tumour: RENCA, renal cell carcinoma
(§3) Therapy: Intravenous (i.v.) on day (d) 10, 13, 17 and 20, end of experiment on d24

[3] = RENCA model, body weight change; type: in vivo, Balc/c mice; settings: i.v. on d 10, 13, 17 and 20; approximately equitoxic doses
Text: as §1, §2, §3

albumin [4] = target: T1, albumin; assay: Incubation with human plasma, gel filtration chromatography (Superdex 200); type: in vitro ADME; parameters: with 1.0 ml of human plasma; from tissue; host or cells: human blood plasma; settings: 250 μl of 100 μM solution with 1.0 ml human plasma, 5 minutes
[5] = as compared with the control group and the doxorubicin-treated group, 4 × 20 mmol/kg i.v.

T1 sequence (P02768 25-609): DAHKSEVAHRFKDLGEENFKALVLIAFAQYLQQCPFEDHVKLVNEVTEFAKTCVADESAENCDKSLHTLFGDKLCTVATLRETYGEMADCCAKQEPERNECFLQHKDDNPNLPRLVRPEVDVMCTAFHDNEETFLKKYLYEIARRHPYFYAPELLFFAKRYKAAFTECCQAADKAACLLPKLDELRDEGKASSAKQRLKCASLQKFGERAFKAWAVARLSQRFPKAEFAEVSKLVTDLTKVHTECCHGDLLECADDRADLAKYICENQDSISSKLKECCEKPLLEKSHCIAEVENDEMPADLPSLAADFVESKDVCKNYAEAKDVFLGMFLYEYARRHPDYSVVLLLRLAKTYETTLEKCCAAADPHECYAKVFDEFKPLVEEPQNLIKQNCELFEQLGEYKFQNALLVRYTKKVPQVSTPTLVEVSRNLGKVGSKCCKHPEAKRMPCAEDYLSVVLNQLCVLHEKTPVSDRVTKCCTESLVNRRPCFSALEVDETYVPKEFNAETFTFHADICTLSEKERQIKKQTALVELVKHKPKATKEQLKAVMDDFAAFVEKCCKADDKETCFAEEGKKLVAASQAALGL

Structure (SMILES): COc1cccc2c1C(=O)c1c(O)c3c(c(O)c1C2=O)C[C@@](O)(/C(CO)=N/NC(=O)Cc1ccc(N2C(=O)C=CC2=O)cc1)C[C@@H]3OC1CC(C)C(O)C(N)C1.Cl (some centres unmarked) [DOXO-HYD]
- covalent binding to albumin in human blood plasma (albumin [1]; human blood plasma, 5 minutes of incubation): most of the DOXO-HYD is covalently bonded to the albumin
- antitumour activity ([2]; RENCA model, i.v. d 10, 13, 17, 20, 4 × 20 mmol/kg, end d24): very good antitumour activity
- kidney tumour volume [2, 5]: marked reduction
- number of lung metastases [2, 5]: marked reduction
- Average decrease in body weight (%) d 1-24 [3]: −15%

Structure (SMILES): COc1cccc2c1C(=O)c1c(O)c3c(c(O)c1C2=O)C[C@@](O)(C(CO)=NNC(=O)CCCCCN1C(=O)C=CC1=O)C[C@@H]3O[C@H]1C[C@H](N)[C@H](O)[C@H](C)O1 [DOXO-EMCH, 6-maleimidocaproic acid hydrazone derivative of doxorubicin]
- binding to albumin in human plasma (albumin [1]; 250μ of 2000 μM solution with 1.0 ml human plasma, 30 seconds): majority of the DOXO-EMCH is bound to albumin

Structure (SMILES): O=C(O)c1cc(N2C(=O)C=CC2=O)ccc1-c1c2ccc(=O)cc-2oc2cc(O)ccc12 [fluoresceinmaleimide]
- binding to albumin in human plasma (albumin [4]): majority of the fluoresceinmaleimide is bound to albumin

Structure (SMILES): COc1cccc2c1C(=O)c1c(O)c3c(c(O)c1C2=O)C[C@@](O)(C(=O)CO)C[C@@H]3O[C@H]1C[C@H](N)[C@H](O)[C@H](C)O1 [Doxorubicin, doxorubicin, reference compound]
- Average decrease in body weight (%) d 1-24 [3]: −15%
